According to paper PMC6978637 (Saudi Pharmaceutical Journal : SPJ, 2019):
Where two headings read alike, the source gives them in different places.

What was measured:
FGFR4 = FGFR4 (Homo sapiens, UniProt P22455); experiment: biochemical; type: biochemical
NIH-3T3 cells = experiment: WST-1 cytotoxicity assay; type: cell-based, mouse; conditions: Mus musculus, NIH3T3, 48 h, read-out: NIH-3T3 Cells IC50
FGFR1 [1] = target: FGFR1 (Homo sapiens, UniProt P11362); experiment: Z'-LYTE kinase enzyme inhibition assay, FGFR1; type: biochemical
FGFR1 [2] = experiment: Z'-LYTE kinase enzyme inhibition assay, FGFR1; type: biochemical; conditions: for FGFR1-SI: selectivity index IC50/IC50, lowest IC50 of the compound = 1
FGFR3 [3] = target: FGFR3 (Homo sapiens, UniProt P22607); experiment: biochemical; type: biochemical
FGFR3 [4] = experiment: biochemical; type: biochemical; conditions: for FGFR selectivity (in words): among FGFR1-4
FGFR2 [5] = target: FGFR2 (Homo sapiens, UniProt P21802); experiment: biochemical; conditions: FGFR2-IC50
FGFR2 [6] = experiment: biochemical
[7] = selectivity index IC50/IC50, lowest IC50 of the compound = 1

Chain of FGFR4 (P22455 22-802): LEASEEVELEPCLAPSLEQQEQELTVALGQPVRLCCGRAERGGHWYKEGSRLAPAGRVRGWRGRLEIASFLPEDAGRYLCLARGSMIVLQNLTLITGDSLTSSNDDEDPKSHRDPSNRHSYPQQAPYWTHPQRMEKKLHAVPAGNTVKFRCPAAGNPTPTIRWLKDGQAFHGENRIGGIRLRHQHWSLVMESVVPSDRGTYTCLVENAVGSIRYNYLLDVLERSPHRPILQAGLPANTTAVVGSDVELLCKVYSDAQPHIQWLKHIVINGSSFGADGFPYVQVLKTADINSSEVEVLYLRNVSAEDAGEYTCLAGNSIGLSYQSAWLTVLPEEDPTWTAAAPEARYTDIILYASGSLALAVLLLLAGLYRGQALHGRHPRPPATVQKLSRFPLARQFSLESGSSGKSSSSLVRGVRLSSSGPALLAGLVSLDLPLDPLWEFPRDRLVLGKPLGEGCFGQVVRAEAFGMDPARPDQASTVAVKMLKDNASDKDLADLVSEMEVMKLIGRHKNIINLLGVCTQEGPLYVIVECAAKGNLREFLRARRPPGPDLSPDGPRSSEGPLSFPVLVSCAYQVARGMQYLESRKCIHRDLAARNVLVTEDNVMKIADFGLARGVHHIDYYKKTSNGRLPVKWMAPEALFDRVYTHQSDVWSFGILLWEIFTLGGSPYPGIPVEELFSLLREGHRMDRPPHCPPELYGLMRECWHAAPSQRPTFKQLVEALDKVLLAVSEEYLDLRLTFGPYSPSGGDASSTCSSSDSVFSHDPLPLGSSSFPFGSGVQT
Chain of FGFR1 (Homo sapiens, UniProt P11362) (P11362 22-822): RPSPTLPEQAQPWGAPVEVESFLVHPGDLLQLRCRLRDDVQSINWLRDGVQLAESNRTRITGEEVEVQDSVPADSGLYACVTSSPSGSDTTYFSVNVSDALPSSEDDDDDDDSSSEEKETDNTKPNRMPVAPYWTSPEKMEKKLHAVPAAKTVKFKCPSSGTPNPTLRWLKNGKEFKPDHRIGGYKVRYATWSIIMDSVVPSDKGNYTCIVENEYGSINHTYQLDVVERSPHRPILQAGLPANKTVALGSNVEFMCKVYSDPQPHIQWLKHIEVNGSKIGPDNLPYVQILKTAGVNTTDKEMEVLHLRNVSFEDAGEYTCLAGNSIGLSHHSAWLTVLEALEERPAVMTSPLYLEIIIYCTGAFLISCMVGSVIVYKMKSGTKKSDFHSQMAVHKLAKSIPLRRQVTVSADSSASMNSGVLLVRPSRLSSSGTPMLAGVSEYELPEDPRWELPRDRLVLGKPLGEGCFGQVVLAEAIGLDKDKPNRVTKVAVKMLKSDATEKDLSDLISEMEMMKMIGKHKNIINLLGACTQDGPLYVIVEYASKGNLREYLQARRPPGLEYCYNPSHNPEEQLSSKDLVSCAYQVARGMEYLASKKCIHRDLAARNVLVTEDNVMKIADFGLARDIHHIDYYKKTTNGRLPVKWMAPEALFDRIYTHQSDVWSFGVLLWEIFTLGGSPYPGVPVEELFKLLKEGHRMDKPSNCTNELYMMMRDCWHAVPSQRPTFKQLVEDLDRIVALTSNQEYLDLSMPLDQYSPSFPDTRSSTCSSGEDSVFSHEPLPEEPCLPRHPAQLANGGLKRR
Chain of FGFR3 (Homo sapiens, UniProt P22607) (P22607 23-806): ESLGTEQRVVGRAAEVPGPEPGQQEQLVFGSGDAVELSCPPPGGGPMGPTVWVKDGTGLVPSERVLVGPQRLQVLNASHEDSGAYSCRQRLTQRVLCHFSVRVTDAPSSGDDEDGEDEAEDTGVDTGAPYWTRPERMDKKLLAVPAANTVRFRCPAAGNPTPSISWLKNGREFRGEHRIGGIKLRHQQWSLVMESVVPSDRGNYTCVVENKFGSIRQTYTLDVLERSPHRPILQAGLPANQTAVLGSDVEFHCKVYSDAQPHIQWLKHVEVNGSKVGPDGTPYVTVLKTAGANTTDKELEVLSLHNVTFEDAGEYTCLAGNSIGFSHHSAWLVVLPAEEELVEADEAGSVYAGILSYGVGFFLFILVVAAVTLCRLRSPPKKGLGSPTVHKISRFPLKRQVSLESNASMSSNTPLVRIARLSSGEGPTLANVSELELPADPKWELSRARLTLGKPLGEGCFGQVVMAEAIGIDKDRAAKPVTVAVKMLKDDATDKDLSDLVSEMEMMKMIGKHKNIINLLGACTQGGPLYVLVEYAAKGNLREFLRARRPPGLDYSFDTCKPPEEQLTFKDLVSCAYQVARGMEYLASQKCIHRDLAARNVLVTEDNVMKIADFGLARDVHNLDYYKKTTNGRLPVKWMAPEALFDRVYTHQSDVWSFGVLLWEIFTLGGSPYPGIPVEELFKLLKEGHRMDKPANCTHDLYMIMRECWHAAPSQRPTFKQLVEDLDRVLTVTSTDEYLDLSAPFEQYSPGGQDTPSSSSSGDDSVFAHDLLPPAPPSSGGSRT
Chain of FGFR2 (Homo sapiens, UniProt P21802) (P21802 22-821): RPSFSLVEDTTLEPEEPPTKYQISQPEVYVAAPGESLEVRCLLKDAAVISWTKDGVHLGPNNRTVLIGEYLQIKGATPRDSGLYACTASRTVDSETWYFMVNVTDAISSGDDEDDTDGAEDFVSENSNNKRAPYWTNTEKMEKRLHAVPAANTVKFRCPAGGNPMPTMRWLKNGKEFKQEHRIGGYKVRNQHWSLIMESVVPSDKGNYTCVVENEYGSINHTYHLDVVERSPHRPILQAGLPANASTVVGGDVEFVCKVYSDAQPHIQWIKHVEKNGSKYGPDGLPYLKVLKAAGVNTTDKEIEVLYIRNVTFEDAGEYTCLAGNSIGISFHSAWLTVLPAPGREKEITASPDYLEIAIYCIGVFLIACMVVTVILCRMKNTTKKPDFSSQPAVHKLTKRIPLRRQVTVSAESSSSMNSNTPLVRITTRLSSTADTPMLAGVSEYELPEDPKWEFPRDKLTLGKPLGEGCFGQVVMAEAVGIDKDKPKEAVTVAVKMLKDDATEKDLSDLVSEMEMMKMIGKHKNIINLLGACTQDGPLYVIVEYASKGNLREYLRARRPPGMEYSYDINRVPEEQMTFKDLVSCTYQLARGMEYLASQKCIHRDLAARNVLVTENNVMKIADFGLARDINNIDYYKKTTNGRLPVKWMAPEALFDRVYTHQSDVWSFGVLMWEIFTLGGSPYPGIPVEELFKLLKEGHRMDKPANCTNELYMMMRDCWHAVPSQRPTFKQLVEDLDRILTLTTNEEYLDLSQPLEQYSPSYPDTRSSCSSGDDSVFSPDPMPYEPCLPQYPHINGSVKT

Structure (SMILES) | FGFR4-SI (FGFR4) | IC50 (FGFR4) [nM] | IC50 (NIH-3T3 cells) [nM] | IC50 (FGFR1 [1]; FGFR1-IC50) [nM] | FGFR1-SI (FGFR1 [2]) | IC50 (FGFR3 [3]; FGFR3-IC50) [nM] | FGFR selectivity (in words) (FGFR3 [4]) | FGFR3-SI (FGFR3 [4]; [7]) | FGFR selectivity (in words) (FGFR1 [2]; among FGFR1-4) | IC50 (FGFR4; read-out: FGFR4-IC50) [nM] | IC50 (FGFR1 [1]; read-out: FGFR1-IC50) [nM] | IC50 (FGFR3 [3]; read-out: FGFR3-IC50) [nM] | FGFR3-SI (FGFR3 [4]) | better inhibitory potency against FGFR2 than FGFR4 (FGFR4; FGFR4 in compare to FGFR2) [fold] | IC50 (FGFR2 [5]) [nM] | FGFR selectivity (in words) (FGFR2 [6]; among FGFR1-4) | FGFR2-SI (FGFR2 [6]; [7]) | better inhibitory potency against FGFR2 than FGFR1 (FGFR1 [2]; FGFR1 in compare to FGFR2) [fold] | better inhibitory potency against FGFR2 than FGFR3 (FGFR3 [4]; FGFR3 in compare to FGFR2) [fold]
O=C1Nc2ccc(-c3ccc(C(=O)N4CCCC4)cc3)cc2/C1=C\c1ccc(N2CCC(O)CC2)cc1 [Compound A12, (E)-3-[4-(4-hydroxypiperidin-1-yl)benzylidene]-5-[4-(pyrrolidine-1-carbonyl)phenyl]indolin-2-one] | 217.749 | 4890 ± 402 | 4960 ± 187 | 646 ± 10.9 | 28.719 | 22.5 ± 0.737 | for FGFR3 | 1 |  |  |  |  |  |  |  |  |  |  | 
O=C1Nc2ccc(-c3ccc(C(=O)N4CCOCC4)cc3)cc2/C1=C\c1ccc(N2CCOCC2)cc1 [Compound A3, (E)-5-[4-(morpholin-4-carbonyl)phenyl]-3-(4-morpholinobenzylidene)indolin-2-one] | 69.878 | 3670 ± 290 | 3260 ± 121 | 686 ± 27.7 | 13.054 | 52.5 ± 4.7 | for FGFR3 | 1 |  |  |  |  |  |  |  |  |  |  | 
O=C1Nc2ccc(-c3ccc(C(=O)N4CCCCC4)cc3)cc2/C1=C\c1ccc(N2CCC(O)CC2)cc1 [Compound A10, (E)-3-[4-(4-hydroxypiperidin-1-yl)benzylidene]-5-[4-(piperidine-1-carbonyl)phenyl]indolin-2-one] | 1343.587 | 23200 ± 271 | 983 ± 158 | 344.7 ± 3.41 | 20.006 | 17.2 ± 0.419 | for FGFR3 | 1 |  |  |  |  |  |  |  |  |  |  | 
O=C1Nc2ccc(-c3ccc(C(=O)N4CCOCC4)cc3)cc2/C1=C\c1ccc(N2CCC(O)CC2)cc1 [Compound A9, (E)-3-[4-(4-hydroxypiperidin-1-yl)benzylidene]-5-[4-(morpholine-4-carbonyl)phenyl]indolin-2-one] | 927.339 | 17700 ± 329 | 1140 ± 220 | 64.4 ± 1.23 | 3.369 | 19.1 ± 3.22 | for FGFR3 | 1 |  |  |  |  |  |  |  |  |  |  | 
CN1CCN(C(=O)c2ccc(-c3ccc4c(c3)/C(=C\c3ccc(N5CCN(C)CC5)cc3)C(=O)N4)cc2)CC1 [Compound A17, (E)-3-[4-(4-methylpiperazin-1-yl)benzylidene]-5-[4-(4-methylpiperazine-1-carbonyl)phenyl]indolin-2-one] | 542.643 | 7230 ± 288 | 4700 ± 105 | 819.8 ± 3.63 | 61.547 | 13.3 ± 2.93 | for FGFR3 | 1 |  |  |  |  |  |  |  |  |  |  | 
O=CN1CCN(c2ccc(/C=C3/C(=O)Nc4ccc(-c5ccc(C(=O)N6CCCCC6)cc5)cc43)cc2)CC1 [Compound A28, (E)-4-{4-{ {2-oxo-5-[4-(piperidine-1-carbonyl)phenyl]indolin-3-ylidene}methyl}phenyl}piperazine-1-carbaldehyde] | 209.223 | 7030 ± 244 | 839 ± 232 | 77.3 ± 3.14 | 2.299 | 33.6 ± 0.574 |  | 1 |  |  |  |  |  |  |  |  |  |  | 
CN1CCN(c2ccc(/C=C3/C(=O)Nc4ccc(-c5ccc(C(=O)N6CCOCC6)cc5)cc43)cc2)CC1 [Compound A15, (E)-3-[4-(4-methylpiperazin-1-yl)benzylidene]-5-[4-(morpholine-4-carbonyl)phenyl]indolin-2-one] | 382.588 | 14800 ± 449 | 9500 ± 260 | 38.7 ± 0.504 | 1 | 38.8 ± 1.35 |  | 1.003 | selectivity to FGFR1 and FGFR3 |  |  |  |  |  |  |  |  |  | 
O=CN1CCN(c2ccc(/C=C3/C(=O)Nc4ccc(-c5ccc(-c6ccc(O)cc6)cc5)cc43)cc2)CC1 [Compound A26, (E)-4-{4-{[5-(4'-hydroxy-[1,1'-biphenyl]-4-yl)-2-oxoindolin-3-ylidene]methyl}phenyl}piperazine-1-carbaldehyde] | 24.028 |  | 2500 ± 268 |  | 1 |  |  |  |  | 10100 ± 322 | 422 ± 40.3 | 481 ± 24.1 | 1.14 |  |  |  |  |  | 
O=C1Nc2ccc(-c3ccc4cc(O)ccc4c3)cc2/C1=C\c1ccc(N2CCOCC2)cc1 [Compound A1, (E)-5-(6-hydroxynaphthalen-2-yl)-3-(4-morpholinobenzylidene)indolin-2-one] | 6247.898 | 37100 ± 965 | 1580 ± 171 | 19.8 ± 3.32 | 3.333 | 1420 ± 423 |  |  |  |  |  |  | 238.648 | 6247.9 | 5.95 | for FGFR2 | 1 | 3.3 | 238.6
